Results as given in article PMC5688156, “The natural product carolacton inhibits folate-dependent C1 metabolism by targeting FolD/MTHFD” (Nature Communications, 2017).

Columns and labels:
spFolD = molecular target: T1, spFolD (Streptococcus pneumoniae serotype 4, UniProt Q97RI9); assay: spFolD cyclohydrolase (CYH) enzyme assay; assay type: biochemical, S. pneumoniae
T1 construct: His-tag (TEV-cleavable, vector pHis-TEV); made in house; host or cells: E. coli BL21 (DE3)
Experimental: (6R,S)-5,10-Methylene-5,6,7,8-tetrahydrofolic acid ((6R,S)-5,10-CH2-THF) calcium salt and (6R,S)-5,10-Methenyl-5,6,7,8-tetrahydrofolic acid ((6R,S)-5,10-CH=THF) chloride were purchased from Schircks Laboratories (Bauma, Switzerland) and used as substrates for FolD dehydrogenase and cyclohydrolase enzyme assays, respectively. Only the R-isomer, which accounts for 50% of (6R,S)-5,10-CH2-THF and (6R,S)-5,10-CH=THF, respectively, is used by the enzyme. (6R,S)-5,10-CH2-THF was dissolved in N2-spargeled basic buffer (50 mM Tris-HCl (pH 8.0), 100 mM β-mercaptoethanol) as described by Varshney et al.[25]. (6R,S)-5,10-CH=THF was dissolved in DMSO as a 100 mM stock solution.
Because FolD is a bifunctional enzyme, dehydrogenase and cyclohydrolase activities were determined for FolD enzyme kinetics, respectively. The dehydrogenase activity of FolD was assayed for its substrate 5,10-CH2-THF and cofactor NADP^+ (in the case of MTHFD2, NAD^+ was used as the cofactor) based on monitoring the formation of 5,10-CH=THF, while the cyclohydrolase activity of FolD was determined for its substrate 5,10-CH=THF by monitoring the hydrolysis of […]. The enzyme kinetics for the dehydrogenase activity of all FolDs except hsMTHFD1_DC were determined at 30 °C in 50 mM Tris-HCl (pH 7.5), 30 mM β-mercaptoethanol. The hsMTHFD1_DC dehydrogenase activity was measured in 25 mM MOPS (pH 7.3), 30 mM β-mercaptoethanol at 30 °C. […] To monitor the formation of 5,10-CH=THF, the absorbance of the reaction mixture was monitored at 350 nm in micro UV cuvettes (BRAND, Essex, Connecticut, USA). The concentration of 5,10-CH=THF produced in the reaction was determined using an extinction co-efficient of 0.0249 μM^−1 cm^−1. […] The consumption of 5,10-CH=THF was measured by recording the absorbance of the reactions at 355 nm using the TECAN Infinite 200 PRO equipped with a monochromator. […] The inhibition constants (K i) of carolacton on FolD were determined by measuring the apparent K m when adding certain amounts of carolacton to the enzyme reactions. […]

E. coli DSM-1116 (WT) = assay: MIC determination on E. coli DSM-1116 (WT); assay type: cell-based; settings: Escherichia coli
Experimental: The determination of MICs was performed as described elsewhere. In brief, E. coli strains were treated with carolacton in serial dilution in either the presence or absence of sub-inhibitory concentrations of polymyxin B nonapeptide (PMBN; 3 µg/mL) and/or phenylalanine–arginine β-napthylamide (PAβN; 20 µg/mL) for 16 h at 37 °C in Mueller–Hinton broth. The MICs were assessed by visual inspection of the plates.

L929 mouse cells = test system: L929 mouse cells; set-up: method as in doi:10.1002/ejoc.200901126, PMID 20659313; settings: cited from earlier work
KB-V.1 = assay: Cytotoxicity screening, KB-V.1 (MTT); assay type: cell-based, human; settings: for EC50: MDR (Pgp-overexpressing) cell line, 5 d treatment, MTT
Experimental: Half maximal effective concentrations (EC50) on human cancer cell lines were determined as described elsewhere. Human cancer cell lines were maintained as recommended by the depositor (German Collection of Microorganisms and Cell Cultures, DSMZ) and were treated for 5 d with carolacton in serial dilution. The viability of adherent cell types, HCT-116 (ACC 581), KB-3.1 (ACC-158) and KB-V.1 (ACC-149) was assessed by the addition of MTT tetrazolium salt and absorbance measurement at 570 nm. Histiocytic lymphoma U-937 cells (ACC-5) were maintained in RPMI 1640 medium and transferred into folate-free medium prior to the assay. Cell viability was determined by measuring alamar blue fluorescence emission at 590 nm. The values were referenced and EC50 values were determined by sigmoidal curve fitting. The cell lines KB-3.1 and KB-V.1 are originally derived from HeLa, whereas the latter is an MDR subclone of KB-3.1. They were used to directly compare the activity of carolacton on an mdr1 overexpressing and a sensitive cell line.

T1 sequence (Q97RI9 whole entry): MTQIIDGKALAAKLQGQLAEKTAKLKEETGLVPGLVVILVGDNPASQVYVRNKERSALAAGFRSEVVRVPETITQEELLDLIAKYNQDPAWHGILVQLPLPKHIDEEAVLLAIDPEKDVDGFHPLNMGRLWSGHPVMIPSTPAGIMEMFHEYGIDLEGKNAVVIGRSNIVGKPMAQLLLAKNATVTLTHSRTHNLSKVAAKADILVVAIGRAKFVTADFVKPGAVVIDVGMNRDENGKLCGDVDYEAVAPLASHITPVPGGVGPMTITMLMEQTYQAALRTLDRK

CO[C@H](CC(=O)O)[C@@H](C)C(=O)[C@H](C)/C=C(\C)[C@H]1OC(=O)[C@H](O)[C@H](O)/C=C/[C@H](C)CCC[C@@H]1C [carolacton]
IC50 (spFolD; 5 nM enzyme, read-out: IC50, carolacton inhibition on CYH activity): 38.1 nM | IC80 (spFolD; 5 nM enzyme, read-out: IC80, carolacton inhibition on CYH activity): 101 nM | Ki (spFolD; vs 5,10-CH=THF, read-out: Ki (5,10-CH=THF), carolacton inhibition on CYH activity): 38.1 nM | MIC (E. coli DSM-1116 (WT); DSM1116, + 3 µg/mL PMBN + 20 µg/mL PAβN, no full inhibition): 2 µg/mL | MIC (E. coli DSM-1116 (WT); DSM1116, + 3 µg/mL PMBN, cation-adjusted Mueller–Hinton broth): ≥ 64 µg/mL | MIC (E. coli DSM-1116 (WT); DSM1116, + 20 µg/mL PAβN (efflux inhibitor), no full inhibition): 2 µg/mL | MIC (E. coli DSM-1116 (WT); DSM1116, no additive, cation-adjusted Mueller–Hinton broth): > 64 µg/mL | acute toxicity to L929 mouse cells (L929 mouse cells): no acute toxicity | EC50 (KB-V.1; Homo sapiens, KB-V1, 120 h): 42000 nM | EC50 (KB-V.1): 41800 ± 14500 nM | Maximum inhibition (KB-V.1; inhibition of cell growth, 5 d): >80%
